Earlier results in US20240350654A1, “NANOCARRIERS FOR TARGETED DELIVERY OF THERAPEUTICS” (Northwestern University, priority 2023, published 2024).

Conditions: humans, approximation

total peak blood concentration of midostaurin and its active metabolites: 2.16 µg/mL
SMILES: CO[C@@H]1[C@H](N(C)C(=O)c2ccccc2)C[C@H]2O[C@]1(C)n1c3ccccc3c3c4c(c5c6ccccc6n2c5c31)C(=O)NC4 [midostaurin]
